Assay results reported in PMC3095510 (Biomacromolecules, 2011).
Ends that are not written are not given here.

System: anthrax lethal toxin (PA and LF), RAW264.7 cells

HTSTYWWLDGAP
concentration up to which cytotoxicity was not inhibited: > 2000 µM
